Structures can show the parent of a compound that is named as a salt.
Tests used:
[1] = alcohol trials, naltrexone 50 mg/day; cited from earlier work
alcoholics = assay: Double-blind placebo-controlled trial of ondansetron in alcoholics randomized by 5'-HTTLPR genotype: self-reported drinking; assay type: in vivo, human
Source text: We randomized 283 alcoholics by genotype in the 5′-regulatory region of the 5-HTT gene (LL/LS/SS) in a controlled double-blind trial. […] We genotyped another functional single nucleotide polymorphism (T/G), rs1042173, in the 3′-untranslated region.
Participants. Details of the subject population were similar to those in a previously published study (22). Briefly, our 283 enrollees (73.7% male; 84.4% White, and 15.6% Hispanic) had alcohol dependence but no axis I diagnosis other than nicotine dependence according to the Diagnostic and Statistical Manual of Mental Disorders, 4th edition (23); were aged 20 to 78 years, and scored >8 on the Alcohol Use Disorders Identification Test (24), which assessed the severity of alcohol-related problems.
All subjects provided informed consent to participate.
Subjects were randomized using an urn (25) procedure after the screening visit to either treatment or placebo under each of three different genotypes (LL, LS, or SS alleles of the 5′-HTTLPR) strata. Further characterization of the cohort for rs1042173 of 3′-UTR alleles (i.e., TT/TG/GG) was done post-randomization.
Study procedures. Subjects were enrolled in the study whilst they were still drinking (i.e., without a period of abstinence). At enrollment, we collected self-reported drinking based on the timeline follow-back method over the past 90 days (26), genotyped, and collected white blood cells (WBCs) for expression studies.
From weeks 1 to 12, subjects received weekly assessment of drinking using the timeline follow-back method, adverse events using the Systematic Assessment for Treatment Emergent Events (28), alcohol withdrawal using the revised Clinical Institute Withdrawal Assessment for Alcohol scale (17), concomitant medication use, and pill count.
All subjects received weekly standardized, manual-driven (29, 30) cognitive behavioral therapy in groups of up to eight subjects as their psychosocial treatment. This comprised an integration of cognitive behavioral and social learning theory that enables alcoholic subjects to achieve and maintain abstinence by enhancing their ability to manage high-risk situations, which can trigger alcohol-seeking behavior (31, 32).
Genetics testing. DNA was extracted from the blood of each subject at baseline with a Gentra Puregene® kit (QIAGEN Inc., Valencia, Calif.). The 5′-HTTLPR L/S alleles were determined as described earlier (2, 33) with custom-made primers. The alleles of SNP rs1042173 were genotyped with pre-made TaqMan® genotyping assays (Applied Biosystems, Foster City, Calif.) as reported previously (10).

[2] = cited from earlier work; for effect on binge eating, in words: human, in vivo
[3] = cited from earlier work
[4] = LL genotype, ondansetron (4 μg/kg twice daily, 11 weeks) vs. placebo, averaged across treatment
[5] = ondansetron LL vs. all other genotype and treatment groups combined
[6] = ondansetron LL/TT vs. all other genotype and treatment groups combined
[7] = within ondansetron recipients, LL vs. LS/SS

O=C1CC[C@@]2(O)[C@H]3Cc4ccc(O)c5c4[C@@]2(CCN3CC2CC2)[C@H]1O5 [naltrexone, 17-(Cyclopropylmethyl)-4,5a-epoxy-3,14-dihydroxymorphinan-6-one hydrochloride]
individuals unable to tolerate the dose [1]: about 15%

Cc1nccn1CC1CCc2c(c3ccccc3n2C)C1=O (stereo not drawn) [ondansetron, 9-methyl-3-[(2-methyl-1H-imidazol-1-yl)methyl]-1,2,3,9-tetrahydrocarbazol-4-one]
drinks/drinking day (DDD), difference (alcoholics; [4]): −1.62
percentage of days abstinent (PDA), difference (alcoholics; [4]): 11.27%
response by age of onset, in words (alcoholics; LL or LL/TT genotype): responded to ondansetron irrespective of age of onset
effect on drinks/drinking day, in words (alcoholics; LL subjects, TT subjects): reduces drinks/drinking day
response to treatment by rs1042173 genotype, in words (alcoholics; alcohol-dependent subjects, TT vs. TG/GG genotype): respond better
reduction in severity of drinking by 5'-HTTLPR genotype, in words (alcoholics; alcoholics with LL genotype vs. LS/SS): significantly greater reduction in the severity of drinking
drinks/drinking day (DDD), difference (alcoholics; [5]): −1.45
percentage of days abstinent (PDA), difference (alcoholics; [5]): 9.65%
drinks/drinking day (DDD), difference (alcoholics; [6]): −2.63
percentage of days abstinent (PDA), difference (alcoholics; [6]): 16.99%
drinks/drinking day (DDD), difference (alcoholics; [7]): −1.53
percentage of days abstinent (PDA), difference (alcoholics; [7]): 9.73%
effect on binge eating, in words [2]: reduce binge eating

O=C1NC(=O)C(c2ccccc2)(c2ccccc2)N1 [phenyloin]
effect on binge eating, in words [2]: reduced binge eating

CC1(C)O[C@@H]2[C@@H](CO[C@@]3(COS(N)(=O)=O)OC(C)(C)O[C@@H]23)O1 [topiramate, 2,3:4,5-Bis-O-(1-methylethylidene)-beta-D-fructopyranose sulfamate]
cognitive impairment, individuals reporting ([3]; general population): 2.4%
occurrence rate of cognitive impairment ([3]; substance abuse field): about 18.7%
effect on appetite and weight, in words ([2]; controlled trials in patients with epilepsy): suppression of appetite and weight loss
